Laboratory results from US20100168040A1, “MUSCLE FATIGUE REMEDY” (Kyowa Hakko Kogyo Co., Ltd., priority 2006, published 2010).
Residues, ends and D or L forms follow the SMILES beside them.

Assays:
[1] = cited from earlier work
[2] = alanylglutamine compared to glutamine; cited from earlier work
[3] = alanylglutamine compared to glutamine; cited from earlier work; remark: listed apart in the source
muscle fatigue = assay: Test Example 1: muscle fatigue status of healthy males consuming alanylglutamine continuously for 1 month; type: in vivo, human; conditions: for Muscle fatigue status: 1 month
Description: Twenty-six healthy males ages 21 to 60 consumed alanylglutamine (manufactured by Kyowa Hakko Co., Ltd.) continuously for 1 month, and the muscle fatigue status of the subjects was evaluated.

For `C[C@H](N)C(=O)N[C@@H](CCC(N)=O)C(=O)O` [alanylglutamine] (H-Ala-Gln-OH), the “degradation in the body” value [1] is listed as “immediately degraded into alanine and glutamine”, the heat stability [2] is listed as “superior” and the “solubility in aqueous solutions” value [3] is listed as “superior”. The “subjects with alleviation of muscle pain after exercise” value (muscle fatigue; of the 15 listed subjects (26 in all), 1 month consumption) was 10 subjects, the “subjects in whom relief of muscle fatigue was observed” value (muscle fatigue; of the 26 subjects, 1 month consumption) was 15 subjects and the Muscle fatigue status (muscle fatigue; subject 21 to 25 years, before going to bed, 2 g/administration) was “Disappearance of muscle pain”. The Muscle fatigue status (muscle fatigue; subject 26 to 30 years, after exercising, 1 g/administration) was “Substantial relief of muscle pain”, the Muscle fatigue status (muscle fatigue; subject 26 to 30 years, before and after exercise, approximately 1 g/administration) was “Reduction of muscle fatigue” and the Muscle fatigue status (muscle fatigue; subject 31 to 35 years, before exercise, 8 g/administration) was “Feeling of damage relief”. The Muscle fatigue status (muscle fatigue; subject 31 to 35 years, morning and before going to bed, 0.6 g/administration) was “Reduction of muscle pain after”, the Muscle fatigue status (muscle fatigue; subject 31 to 35 years, morning, 0.5 g/administration) was “Lighter muscle pain after” and the Muscle fatigue status (muscle fatigue; subject 36 to 40 years, morning and evening, 0.5 g/administration) was “Reduction of muscle pain”. For the same compound, the Muscle fatigue status (muscle fatigue; subject 45 to 50 years, before going to bed, approximately 2.5 g/administration) was “Reduction of stiff shoulders the”, the Muscle fatigue status (muscle fatigue; subject 46 to 50 years, after meals morning and evening, 1 g/administration) was “Less fatigue and muscle pain” and the Muscle fatigue status (muscle fatigue; subject 51 to 55 years, before going to bed, approximately 0.5 g/administration) was “Became less prone to fatigue”. The Muscle fatigue status (muscle fatigue; subject 51 to 55 years, every morning, 1 g/administration) was “Alleviation of muscle pain after” and the Muscle fatigue status (muscle fatigue; subject 56 to 60 years, morning and evening, 0.5 g/administration) was “Reduction of muscle pain”.
